Source: article PMC7801115, “Preclinical in vitro screening of newly synthesised amidino substituted benzimidazoles and benzothiazoles” (Journal of Enzyme Inhibition and Medicinal Chemistry, 2021)

How the values were obtained:
[1] = tested on: P-glycoprotein (human MDR1); test: MDCKII-MDR1 permeability and P-glycoprotein substrate assay; type: in vitro ADME, canine cells over-expressing human MDR1; settings: dog; for efflux ratio at 60 min, 10 µM: MDCK-MDR1, pH 7.4, without P-gp inhibitor; for Papp A→B at 60 min, 10 µM / Papp B→A at 60 min, 10 µM: MDCK-MDR1, pH 7.4, without P-gp inhibitor; for Papp A→B at 60 min, 10 µM: read-out: MDCKII-MDR1 Papp(A2B); for Papp B→A at 60 min, 10 µM: read-out: MDCKII-MDR1 Papp(B2A)
Protocol: Permeability and P-glycoprotein substrate assessment was done on MDCKII-hMDR1, Madin-Darby canine epithelial cells over-expressing human MDR1 gene, coding for P-glycoprotein.
Cells were prepared for transport studies by seeding on 96-well cell culture inserts (Millipore, MA, USA) in a concentration of 0.25 × 10^6 cells per ml. The cells were fed with fresh medium 24 h post seeding and cultured to confluence for 3 days before use. On the day of experiment, the cell monolayers were washed and equilibrated with transport medium (DPBS, pH 7.4 containing 1% DMSO) with or without P-gp specific inhibitor, elacridar (2 µM) for 45 min (37 °C, 5% CO2, 95% humidity). Test compound solution consisted of test substance (10 μM) in D-PBS medium containing lucifer yellow (100 μM) and 1% DMSO. Transport assays were conducted in apical to basolateral (A2B) and basolateral to apical (B2A) directions, respectively. Monolayers were incubated with the compound solution for 60 min at 37 °C under gentle agitation. Apical and basolateral compartments were sampled at the end of the transport experiment, while donor solutions were also sampled at the beginning of the experiment in order to determine initial concentration. Test substance concentrations in both compartments were determined by LC-MS/MS. There were several controls used in the assay: 1) amprenavir (0.5 μM) served as a low permeable control, being also a P-gp substrate; 2) diclofenac (10 μM) was used as a high permeable control; 3) Lucifer yellow, a fluorescent marker for the paracellular membrane transport, was used as a control of cell monolayer integrity.
(§1) All ADME samples were analysed on a Sciex API 4000 or Sciex API4500 Triple Quadrupole Mass Spectrometer (Sciex, Framingham, MA, USA) coupled to a UHPLC System (Shimadzu Nexera X2; Shimadzu, Kyoto, Japan). Samples were injected onto an UPLC column (HALO2 C18, 2.1 × 20 mm, 2 µm or Phenomenex Luna Omega Polar C18, 30 × 2.1 mm, 1.6 µm) and eluted with a gradient at temperature of 50 °C. The mobile phase was composed of acetonitrile (with 0.1% formic acid) and 0.1% formic acid in deionised water. A total run time was 1 or 1.5 min, with the flow rate of 0.7 ml/min (under gradient conditions). A positive ion mode with turbo spray, an ion source temperature of 500 °C and a dwell time of 150 ms were utilised for mass spectrometric detection. Multiple reaction monitoring (MRM) was used at the specific transitions for each compound/control tested: compound 5c: 361.9 → 304.9; compound 5d: 344.8 → 287.9; compound 5e: 349.8 → 292.9; compound 5 g: 350.8 → 293.9; compound 5 h: 344.0 → 286.9; compound 6a: 276.9 → 220.0; compound 5 b: 319.0 → 262.0; compound 6 b: 302.1 → 245.1; compound 6c: 344.9 → 288.0; compound 6d: 333.0 → 276.0; compound 6e: 316.1 → 259.0; compound 6f: 327.1 → 270.0; compound 6 g: 377.1 → 320.1; testosterone: 289.3→ 97.1; propranolol: 260.1 → 182.8; caffeine: 195.2 → 138.1; acebutolol: 337.2 → 116.2, nicardipine: 480.2 → 315.0; verapamil: 455.4 → 165.1; amprenavir: 506.2 → 245.4; diclofenac: 296.1 → 213.7 or 296.2 → 215.3; eucatropine: 292.2 → 109.1; benfluorex: 352.1 → 230.3, and warfarin: 309.2 → 163.2

[2] = Metabolic stability in liver microsomes; type: in vitro ADME; settings: 60 min
Protocol: Tested compounds (final concentration of 1 µM, 0.1% DMSO), as well as testosterone and propranolol as positive controls and caffeine as negative control were incubated in phosphate buffer (50 mM, pH 7.4) for 60 min at 37 °C with liver microsomes (human and mouse) in the absence and presence of the NADPH cofactor. The NADPH generating system was prepared in phosphate buffer and consisted of nicotinamide adenine dinucleotide phosphate (NADP, 0.38 mM), glucose-6-phosphate (1.49 mM), glucose-6-phosphate dehydrogenase (1.5 U) and magnesium chloride (0.1 mM). Aliquots were taken at different time points (0, 10, 20, 30, 45 and 60 min) and reaction was terminated by addition of a MeCN/MeOH (2:1) mixture, containing diclofenac as internal standard. Samples were then centrifuged (at 4500 rpm, at 4 °C, for 30 min) and resulting supernatants were subjected to LC-MS/MS analysis. The in vitro half life (t½) was determined from the slope of the linear regression of ln % parent compound remaining versus incubation time. In vitro intrinsic clearance, expressed as µl/min/mg liver, was determined from in vitro half life (t½) and normalised for the protein concentration in the incubation mixture. Predicted in vivo hepatic clearance was determined from in vitro intrinsic clearance assuming 52.5 mg of protein/g of liver and using constant values for liver weight/body weight [g/kg] (25.7 for human, 87.5 for mouse) and liver blood flow (LBF) [ml/min/kg] (21 for human and 131 for mouse).
as §1

NCI-H358 = test: BrdU proliferation assay, 2D cell culture; type: cell-based; settings: Homo sapiens, NCI-H358, 2D cell culture, ±SD, N = 2
Protocol: (§2) Cells were grown in 96 well cell star polystyrene plates. 10,000 cells/well were seeded in wells 4 h prior the treatment with different compounds concentrations and incubated for 72 h. A cell viability assay was performed according to the manufacturer’s instruction, using CellTiter 96 aqueous solution, MTS kit (Promega, Madison, WI, USA). After 0.5–2 h of cell incubation with MTS in 2 D cell culture, the plates were read using PE EnVision absorbance at 490 nm. […] Since we prefer homogeneous assays (mix and read procedures) and therefore MTS is more practical (one step less than MTT). MTS is more sensitive and accurate in comparison with MTT assay.
(§3) Proliferation assay was performed using Cell Proliferation ELISA, BrdU (Sigma, St. Louis, MO, USA). Briefly, 48 h hours after compound addition, 10 µM of BrdU was added to each well and incubated for following 24 h. After incubation, single cell suspension was made for 3 D cell culture in the new 96 well plate. Plates were centrifuged and supernatants were removed from each plate (for 2 D and 3 D cell culture) followed by 60 min incubation at 60° C. The rest of the proliferation assay was performed according to the manufacturer instructions.
(§4) Calculation of IC50 data, curves and QC analysis is made by using Excel tools and GraphPadPrism software (La Jolla, CA), v. […] QC criteria parameters (Z', S:B, R2, HillSlope) were checked for every IC50 curve.

HCC827 = test: BrdU proliferation assay, 2D cell culture; type: cell-based; settings: Homo sapiens, HCC827, 2D cell culture, ±SD, N = 2
Protocol: as §2, §3, §4

Structure (SMILES)	efflux ratio at 60 min, 10 µM [1]	Papp A→B at 60 min, 10 µM [1] [×10⁻⁶ cm/s]	Papp B→A at 60 min, 10 µM [1] [×10⁻⁶ cm/s]	Microsomes (1 µM) Predicted in vivo hep CL, Human [2] [%LBF]	Microsomes (1 µM) Predicted in vivo hep CL, Mouse [2] [%LBF]	IC50 (NCI-H358) [µM]	IC50 (HCC827) [µM]
c1ccc(-c2nc3cc(C4=NCCCN4)ccc3[nH]2)cc1 [Compound 6a, 2-Phenyl-5(6)–(3,4,5,6-tetrahydropyrimidin-1-ium-2-yl)benzimidazole chloride]	3.7	0.4	1.4	56	41	7 ± 0.3	7 ± 0.35
N#Cc1ccc(-c2nc3cc(C4=NCCCN4)ccc3[nH]2)cc1 [Compound 6b, 2–(4-Cyanophenyl)-5(6)–(3,4,5,6-tetrahydropyrimidin-1-ium-2-yl)benzimidazole chloride]	< 2	0.92	1.02	<30	<30	> 50	> 50
